Assay results published in PubChem BioAssay (NCI).
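In this assay, cells in 96-well plates receive the compound at five concentrations for 48 hours. Endpoints are linearly interpolated between the surrounding concentrations. GI50 = concentration required for 50% inhibition of growth. At the TGI there is no net growth.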

Experiments:
Test in all cases: DTP human tumour cell line panel, 48 h
OVCAR-3 ovarian = system: OVCAR-3 ovarian
HCT-15 colon = system: HCT-15 colon
UO-31 renal = system: UO-31 renal
HL-60(TB) leukemia = system: HL-60(TB) leukemia
786-0 renal = system: 786-0 renal
PC-3 prostate = system: PC-3 prostate
UACC-62 melanoma = system: UACC-62 melanoma
IGROV1 ovarian = system: IGROV1 ovarian
TK-10 renal = system: TK-10 renal
SW-620 colon = system: SW-620 colon
K-562 leukemia = system: K-562 leukemia
HOP-92 NSCLC = system: HOP-92 NSCLC
SF-539 CNS = system: SF-539 CNS
OVCAR-8 ovarian = system: OVCAR-8 ovarian
SR leukemia = system: SR leukemia
SF-295 CNS = system: SF-295 CNS
DU-145 prostate = system: DU-145 prostate
MDA-MB-435 = system: MDA-MB-435
NCI-H226 lung = system: NCI-H226 lung
RPMI-8226 leukemia = system: RPMI-8226 leukemia
A498 renal = system: A498 renal
MALME-3M melanoma = system: MALME-3M melanoma
RXF 393 renal = system: RXF 393 renal
SF-268 CNS = system: SF-268 CNS
MOLT-4 leukemia = system: MOLT-4 leukemia
HT29 colon = system: HT29 colon
SNB-75 CNS = system: SNB-75 CNS
MDA-MB-231 breast = system: MDA-MB-231 breast
HS 578T breast = system: HS 578T breast
LOX IMVI melanoma = system: LOX IMVI melanoma
COLO 205 colon = system: COLO 205 colon
KM12 colon = system: KM12 colon
HCC-2998 colon = system: HCC-2998 colon
SK-MEL-28 melanoma = system: SK-MEL-28 melanoma
SN12C renal = system: SN12C renal
BT-549 breast = system: BT-549 breast
EKVX NSCLC = system: EKVX NSCLC
U251 CNS = system: U251 CNS
CAKI-1 renal = system: CAKI-1 renal
SK-OV-3 ovarian = system: SK-OV-3 ovarian
UACC-257 melanoma = system: UACC-257 melanoma
NCI/ADR-RES ovarian = system: NCI/ADR-RES ovarian
NCI-H23 lung = system: NCI-H23 lung
MCF7 breast = system: MCF7 breast
NCI-H460 lung = system: NCI-H460 lung
HCT-116 colon = system: HCT-116 colon
OVCAR-4 ovarian = system: OVCAR-4 ovarian
M14 melanoma = system: M14 melanoma
SK-MEL-5 melanoma = system: SK-MEL-5 melanoma
ACHN renal = system: ACHN renal
OVCAR-5 ovarian = system: OVCAR-5 ovarian
HOP-62 NSCLC = system: HOP-62 NSCLC
A549 NSCLC = system: A549 NSCLC
MDA-MB-468 breast = system: MDA-MB-468 breast
NCI-H522 lung = system: NCI-H522 lung
SK-MEL-2 melanoma = system: SK-MEL-2 melanoma
SNB-19 CNS = system: SNB-19 CNS
T-47D breast = system: T-47D breast

For `CN1CCN(c2ccc(Nc3nc(NCCNC(=O)c4ccc(C(F)(F)F)cc4)c4sccc4n3)cc2)CC1`, the GI50 (OVCAR-3 ovarian) was 14.4 µM, the TGI (OVCAR-3 ovarian) was 32 µM and the GI50 (HCT-15 colon) was 3.33 µM. For the same molecule, the TGI (HCT-15 colon) was 13.9 µM, the GI50 (UO-31 renal) was 11.8 µM and the TGI (UO-31 renal) was 24.1 µM. For the same molecule, the GI50 (HL-60(TB) leukemia) was 3.49 µM, the TGI (HL-60(TB) leukemia) was 15.8 µM and the GI50 (786-0 renal) was 3.24 µM. For the same molecule, the TGI (786-0 renal) was 13.1 µM, the GI50 (PC-3 prostate) was 10.4 µM and the TGI (PC-3 prostate) was 26.9 µM. For the same molecule, the GI50 (UACC-62 melanoma) was 2.01 µM, the TGI (UACC-62 melanoma) was 4.79 µM and the GI50 (IGROV1 ovarian) was 12.9 µM. The TGI (IGROV1 ovarian) was 26 µM, the GI50 (TK-10 renal) was 16.6 µM and the TGI (TK-10 renal) was 30.8 µM. The GI50 (SW-620 colon) was 12.7 µM, the TGI (SW-620 colon) was 26.4 µM and the GI50 (K-562 leukemia) was 2.24 µM. It also gave a TGI (K-562 leukemia) of 8.8 µM, a GI50 (HOP-92 NSCLC) of 4.66 µM and a TGI (HOP-92 NSCLC) of 18.9 µM. It also gave a GI50 (SF-539 CNS) of 2.12 µM, a TGI (SF-539 CNS) of 4.6 µM and a GI50 (OVCAR-8 ovarian) of 10.8 µM. For the same molecule, the TGI (OVCAR-8 ovarian) was 28 µM, the GI50 (SR leukemia) was 1.9 µM and the TGI (SR leukemia) was 5.21 µM. The GI50 (SF-295 CNS) was 3.52 µM, the TGI (SF-295 CNS) was 13.6 µM and the GI50 (DU-145 prostate) was 14.2 µM. For the same molecule, the TGI (DU-145 prostate) was 27.9 µM, the GI50 (MDA-MB-435) was 3.5 µM and the TGI (MDA-MB-435) was 11 µM. For the same molecule, the GI50 (NCI-H226 lung) was 14 µM, the TGI (NCI-H226 lung) was 29.8 µM and the GI50 (RPMI-8226 leukemia) was 1.88 µM. For the same molecule, the TGI (RPMI-8226 leukemia) was 4.54 µM, the GI50 (A498 renal) was 17.1 µM and the TGI (A498 renal) was 31 µM. The GI50 (MALME-3M melanoma) was 1.77 µM, the TGI (MALME-3M melanoma) was 3.16 µM and the GI50 (RXF 393 renal) was 2.67 µM. For the same molecule, the TGI (RXF 393 renal) was 10.3 µM, the GI50 (SF-268 CNS) was 11.1 µM and the TGI (SF-268 CNS) was 31.4 µM. It also gave a GI50 (MOLT-4 leukemia) of 3.64 µM, a TGI (MOLT-4 leukemia) of 16.5 µM and a GI50 (HT29 colon) of 3.53 µM. It also gave a TGI (HT29 colon) of 12.6 µM, a GI50 (SNB-75 CNS) of 6.55 µM and a TGI (SNB-75 CNS) of 20.7 µM. It also gave a GI50 (MDA-MB-231 breast) of 3.72 µM, a TGI (MDA-MB-231 breast) of 14.4 µM and a GI50 (HS 578T breast) of 4.19 µM. For the same molecule, the TGI (HS 578T breast) was 23.2 µM, the GI50 (LOX IMVI melanoma) was 2.66 µM and the TGI (LOX IMVI melanoma) was 8.84 µM. It also gave a GI50 (COLO 205 colon) of 7.4 µM, a TGI (COLO 205 colon) of 22.6 µM and a GI50 (KM12 colon) of 14 µM. For the same molecule, the TGI (KM12 colon) was 30.8 µM, the GI50 (HCC-2998 colon) was 4.55 µM and the TGI (HCC-2998 colon) was 15.5 µM. The GI50 (SK-MEL-28 melanoma) was 2.13 µM, the TGI (SK-MEL-28 melanoma) was 3.99 µM and the GI50 (SN12C renal) was 12.9 µM. The TGI (SN12C renal) was 25.7 µM, the GI50 (BT-549 breast) was 12.3 µM and the TGI (BT-549 breast) was 25.1 µM. It also gave a GI50 (EKVX NSCLC) of 13.9 µM, a TGI (EKVX NSCLC) of 29.2 µM and a GI50 (U251 CNS) of 3.54 µM. The TGI (U251 CNS) was 13.8 µM, the GI50 (CAKI-1 renal) was 9.24 µM and the TGI (CAKI-1 renal) was 21.7 µM. The GI50 (SK-OV-3 ovarian) was 17.3 µM, the TGI (SK-OV-3 ovarian) was 33.4 µM and the GI50 (UACC-257 melanoma) was 1.75 µM. For the same molecule, the TGI (UACC-257 melanoma) was 3.39 µM, the GI50 (NCI/ADR-RES ovarian) was 16.1 µM and the TGI (NCI/ADR-RES ovarian) was 39.5 µM. The GI50 (NCI-H23 lung) was 14.6 µM, the TGI (NCI-H23 lung) was 29.6 µM and the GI50 (MCF7 breast) was 4.06 µM. It also gave a TGI (MCF7 breast) of 15.7 µM, a GI50 (NCI-H460 lung) of 13.3 µM and a TGI (NCI-H460 lung) of 28.7 µM. The GI50 (HCT-116 colon) was 4.25 µM, the TGI (HCT-116 colon) was 15.2 µM and the GI50 (OVCAR-4 ovarian) was 13.6 µM. It also gave a TGI (OVCAR-4 ovarian) of 48.1 µM, a GI50 (M14 melanoma) of 1.88 µM and a TGI (M14 melanoma) of 3.63 µM. It also gave a GI50 (SK-MEL-5 melanoma) of 2.3 µM, a TGI (SK-MEL-5 melanoma) of 5.99 µM and a GI50 (ACHN renal) of 13.4 µM. The TGI (ACHN renal) was 27.9 µM, the GI50 (OVCAR-5 ovarian) was 15.1 µM and the TGI (OVCAR-5 ovarian) was 30.5 µM. For the same molecule, the GI50 (HOP-62 NSCLC) was 15.1 µM, the TGI (HOP-62 NSCLC) was 30.7 µM and the GI50 (A549 NSCLC) was 11.7 µM. For the same molecule, the TGI (A549 NSCLC) was 30.8 µM, the GI50 (MDA-MB-468 breast) was 2.26 µM and the TGI (MDA-MB-468 breast) was 9.44 µM. The GI50 (NCI-H522 lung) was 4.21 µM, the TGI (NCI-H522 lung) was 16.7 µM and the GI50 (SK-MEL-2 melanoma) was 15.7 µM. It also gave a TGI (SK-MEL-2 melanoma) of 29.7 µM, a GI50 (SNB-19 CNS) of 14.2 µM and a TGI (SNB-19 CNS) of 27.5 µM. For the same molecule, the GI50 (T-47D breast) was 10.8 µM and the TGI (T-47D breast) was 31.1 µM.
